Test results published in patent US12275731B2, “Azaindole inhibitors of wild-type and mutant forms of LRRK2” (DANA-FARBER CANCER INSTITUTE, INC., priority 2018, dated 2025).

Legend:
Assay in all cases: KinomeScan profiling
Assay type in all cases: binding
[1] = target: T1, ABL1(F317I)-phoshorylated (Homo sapiens, UniProt P00519, F317I); conditions: read-out: % control
T1 construct: purchased KinomeScan®
Summary of the method: (§1)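 At 1 μM in DMSO, compounds are run through a broad 468-member kinase panel. The luminescent read-out is normalised so that vehicle gives 100% and a positive control gives 0%; any kinase falling below 35% is treated as a target.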

EPHB1 = target: T2, EPHB1 (Homo sapiens, UniProt P54762); conditions: EPHB1, 1 μM; read-out: % control
T2 sequence (P54762 18-984): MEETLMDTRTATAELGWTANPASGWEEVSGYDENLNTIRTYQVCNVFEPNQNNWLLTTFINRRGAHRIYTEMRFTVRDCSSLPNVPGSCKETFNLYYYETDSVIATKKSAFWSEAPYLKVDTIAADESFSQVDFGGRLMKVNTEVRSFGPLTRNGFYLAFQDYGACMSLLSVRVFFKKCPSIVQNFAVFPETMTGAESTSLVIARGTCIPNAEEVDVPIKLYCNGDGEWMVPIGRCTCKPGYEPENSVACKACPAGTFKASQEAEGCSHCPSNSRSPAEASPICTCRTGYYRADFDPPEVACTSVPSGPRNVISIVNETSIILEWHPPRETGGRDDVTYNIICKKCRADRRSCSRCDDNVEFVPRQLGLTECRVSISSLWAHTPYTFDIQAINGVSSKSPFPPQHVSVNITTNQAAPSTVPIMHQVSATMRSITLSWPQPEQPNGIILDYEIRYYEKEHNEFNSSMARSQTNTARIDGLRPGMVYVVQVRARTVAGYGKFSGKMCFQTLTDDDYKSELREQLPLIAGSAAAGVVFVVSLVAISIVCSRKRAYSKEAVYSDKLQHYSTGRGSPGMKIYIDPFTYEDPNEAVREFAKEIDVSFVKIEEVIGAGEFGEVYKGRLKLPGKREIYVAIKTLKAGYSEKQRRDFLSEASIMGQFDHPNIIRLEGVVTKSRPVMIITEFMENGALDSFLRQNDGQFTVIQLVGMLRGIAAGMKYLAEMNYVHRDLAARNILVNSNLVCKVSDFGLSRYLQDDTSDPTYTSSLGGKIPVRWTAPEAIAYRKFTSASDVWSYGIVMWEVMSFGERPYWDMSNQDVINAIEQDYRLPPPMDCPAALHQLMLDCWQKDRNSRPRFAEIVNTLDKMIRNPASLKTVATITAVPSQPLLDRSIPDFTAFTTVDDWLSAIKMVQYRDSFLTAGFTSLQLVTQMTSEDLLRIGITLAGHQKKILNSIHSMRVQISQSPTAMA
Summary of the method: as §1

ACVRL1 = target: T3, ACVRL1 (Homo sapiens, UniProt P37023); conditions: ACVRL1, 1 μM; read-out: % control
T3 construct: purchased KinomeScan®
Summary of the method: as §1

AKT1 = target: T4, AKT1 (Homo sapiens, UniProt P31749); conditions: AKT1, 1 μM; read-out: % control
T4 construct: purchased KinomeScan®
Summary of the method: as §1

NDR1 = NDR1 (Homo sapiens, UniProt Q15208); conditions: NDR1, 1 μM; read-out: % control
Summary of the method: as §1

ABL1-nonphosphorylated = target: T5, ABL1-nonphosphorylated (Homo sapiens, UniProt P00519); conditions: read-out: % control
T5 construct: purchased KinomeScan®
Summary of the method: as §1

LATS2 = target: T6, LATS2 (Homo sapiens, UniProt Q9NRM7); conditions: LATS2, 1 μM; read-out: % control
T6 sequence (Q9NRM7 1-1088): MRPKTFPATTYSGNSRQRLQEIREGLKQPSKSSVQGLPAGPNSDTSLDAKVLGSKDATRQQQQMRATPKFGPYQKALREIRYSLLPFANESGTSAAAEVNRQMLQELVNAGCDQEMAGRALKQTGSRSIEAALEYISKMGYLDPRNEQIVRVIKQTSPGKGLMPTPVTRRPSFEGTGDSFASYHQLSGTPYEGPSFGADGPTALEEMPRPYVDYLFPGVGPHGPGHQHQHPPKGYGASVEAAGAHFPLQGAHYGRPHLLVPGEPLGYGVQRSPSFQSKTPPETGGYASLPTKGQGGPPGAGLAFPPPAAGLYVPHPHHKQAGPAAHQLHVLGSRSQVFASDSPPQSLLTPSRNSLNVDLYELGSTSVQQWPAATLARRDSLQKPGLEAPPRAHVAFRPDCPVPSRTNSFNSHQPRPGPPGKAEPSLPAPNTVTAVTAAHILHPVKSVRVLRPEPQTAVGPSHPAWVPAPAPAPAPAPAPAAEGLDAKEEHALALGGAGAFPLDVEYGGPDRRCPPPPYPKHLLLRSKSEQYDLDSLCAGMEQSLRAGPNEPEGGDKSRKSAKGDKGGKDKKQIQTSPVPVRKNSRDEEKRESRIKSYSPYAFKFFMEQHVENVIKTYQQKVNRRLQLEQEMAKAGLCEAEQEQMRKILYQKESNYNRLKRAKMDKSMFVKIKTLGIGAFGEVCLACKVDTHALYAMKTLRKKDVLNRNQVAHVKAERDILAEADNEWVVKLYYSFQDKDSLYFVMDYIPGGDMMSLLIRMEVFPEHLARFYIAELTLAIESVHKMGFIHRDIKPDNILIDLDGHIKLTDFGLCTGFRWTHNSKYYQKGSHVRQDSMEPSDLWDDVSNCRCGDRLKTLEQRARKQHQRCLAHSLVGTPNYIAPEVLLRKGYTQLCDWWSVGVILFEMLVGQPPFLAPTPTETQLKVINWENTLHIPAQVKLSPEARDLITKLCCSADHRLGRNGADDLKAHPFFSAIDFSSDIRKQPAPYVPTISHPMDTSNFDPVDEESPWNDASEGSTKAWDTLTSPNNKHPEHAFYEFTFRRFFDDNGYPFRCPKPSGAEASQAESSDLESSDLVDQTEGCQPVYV
Summary of the method: as §1

GRK4 = GRK4 (Homo sapiens, UniProt P32298); conditions: GRK4, 1 μM; read-out: % control
Summary of the method: as §1

NDR1, sequence (Q15208 whole entry): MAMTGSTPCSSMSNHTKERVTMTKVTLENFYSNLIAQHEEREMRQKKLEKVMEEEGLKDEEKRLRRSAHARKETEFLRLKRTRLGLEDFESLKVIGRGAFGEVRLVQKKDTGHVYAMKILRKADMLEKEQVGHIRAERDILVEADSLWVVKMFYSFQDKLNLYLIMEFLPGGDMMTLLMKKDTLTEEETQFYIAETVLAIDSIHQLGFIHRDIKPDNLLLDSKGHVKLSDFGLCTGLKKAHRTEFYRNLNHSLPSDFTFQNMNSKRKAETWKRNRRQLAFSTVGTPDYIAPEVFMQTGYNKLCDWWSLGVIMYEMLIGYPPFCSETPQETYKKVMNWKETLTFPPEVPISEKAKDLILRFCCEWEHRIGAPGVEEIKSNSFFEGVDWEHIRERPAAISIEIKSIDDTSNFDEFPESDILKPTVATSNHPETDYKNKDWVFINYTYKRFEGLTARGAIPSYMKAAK
T3 sequence (P37023 22-503): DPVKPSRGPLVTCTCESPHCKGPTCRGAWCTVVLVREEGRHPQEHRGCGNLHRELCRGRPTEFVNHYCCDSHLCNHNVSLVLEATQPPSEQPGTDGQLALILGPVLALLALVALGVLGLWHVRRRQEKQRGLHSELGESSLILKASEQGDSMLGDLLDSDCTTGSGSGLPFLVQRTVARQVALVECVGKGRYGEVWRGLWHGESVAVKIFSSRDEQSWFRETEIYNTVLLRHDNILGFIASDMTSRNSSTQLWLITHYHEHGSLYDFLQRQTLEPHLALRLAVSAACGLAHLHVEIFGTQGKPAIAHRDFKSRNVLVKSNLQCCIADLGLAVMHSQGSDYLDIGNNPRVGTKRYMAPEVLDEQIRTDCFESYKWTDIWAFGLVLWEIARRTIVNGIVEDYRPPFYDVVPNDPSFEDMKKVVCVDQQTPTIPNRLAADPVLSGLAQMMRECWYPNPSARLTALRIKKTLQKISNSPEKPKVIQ
T1 sequence (P00519 whole entry F317I): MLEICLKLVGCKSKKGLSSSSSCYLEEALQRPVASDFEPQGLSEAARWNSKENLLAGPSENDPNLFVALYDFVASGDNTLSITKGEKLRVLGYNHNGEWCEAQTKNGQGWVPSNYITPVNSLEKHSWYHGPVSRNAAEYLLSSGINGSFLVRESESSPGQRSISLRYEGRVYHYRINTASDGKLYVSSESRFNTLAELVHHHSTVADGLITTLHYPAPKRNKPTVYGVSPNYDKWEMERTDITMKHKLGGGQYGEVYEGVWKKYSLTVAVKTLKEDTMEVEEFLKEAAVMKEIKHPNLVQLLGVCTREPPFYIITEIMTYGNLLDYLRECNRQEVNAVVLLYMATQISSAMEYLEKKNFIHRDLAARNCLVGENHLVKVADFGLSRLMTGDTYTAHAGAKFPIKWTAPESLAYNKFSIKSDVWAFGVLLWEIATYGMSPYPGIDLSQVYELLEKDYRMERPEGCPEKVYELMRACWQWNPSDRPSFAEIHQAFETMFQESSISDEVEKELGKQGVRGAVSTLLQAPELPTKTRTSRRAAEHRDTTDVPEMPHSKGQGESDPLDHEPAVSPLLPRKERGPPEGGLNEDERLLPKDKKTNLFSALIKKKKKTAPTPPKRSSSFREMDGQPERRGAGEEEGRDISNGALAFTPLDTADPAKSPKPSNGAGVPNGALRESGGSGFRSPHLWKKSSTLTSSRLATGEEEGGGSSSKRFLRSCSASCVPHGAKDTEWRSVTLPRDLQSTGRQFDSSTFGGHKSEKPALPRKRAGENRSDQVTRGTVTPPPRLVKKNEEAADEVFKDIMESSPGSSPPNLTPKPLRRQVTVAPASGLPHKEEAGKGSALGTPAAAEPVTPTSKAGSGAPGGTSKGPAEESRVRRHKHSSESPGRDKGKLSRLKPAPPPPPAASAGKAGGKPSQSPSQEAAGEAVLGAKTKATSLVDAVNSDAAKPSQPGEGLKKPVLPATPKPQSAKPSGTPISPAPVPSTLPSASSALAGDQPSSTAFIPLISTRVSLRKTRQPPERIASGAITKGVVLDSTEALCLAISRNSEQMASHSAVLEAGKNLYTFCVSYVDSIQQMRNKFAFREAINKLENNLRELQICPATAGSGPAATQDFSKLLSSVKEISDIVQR
T5 sequence (P00519 whole entry): as the sequence (P00519 whole entry F317I) above, with I317F counted along it
T4 sequence (P31749 whole entry): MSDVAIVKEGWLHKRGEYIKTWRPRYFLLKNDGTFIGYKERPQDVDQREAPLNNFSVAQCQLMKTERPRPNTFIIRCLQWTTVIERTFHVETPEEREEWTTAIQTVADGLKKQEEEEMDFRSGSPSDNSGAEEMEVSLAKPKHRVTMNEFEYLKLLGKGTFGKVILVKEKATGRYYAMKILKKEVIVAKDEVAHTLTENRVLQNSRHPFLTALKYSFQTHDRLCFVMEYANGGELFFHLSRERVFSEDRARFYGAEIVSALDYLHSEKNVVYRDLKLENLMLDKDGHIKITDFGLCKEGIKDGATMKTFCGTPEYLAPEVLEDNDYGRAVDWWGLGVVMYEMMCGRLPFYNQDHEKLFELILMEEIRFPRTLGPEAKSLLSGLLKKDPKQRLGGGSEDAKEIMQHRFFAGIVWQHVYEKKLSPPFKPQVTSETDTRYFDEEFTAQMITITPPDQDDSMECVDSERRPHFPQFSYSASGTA
GRK4, sequence (P32298 whole entry): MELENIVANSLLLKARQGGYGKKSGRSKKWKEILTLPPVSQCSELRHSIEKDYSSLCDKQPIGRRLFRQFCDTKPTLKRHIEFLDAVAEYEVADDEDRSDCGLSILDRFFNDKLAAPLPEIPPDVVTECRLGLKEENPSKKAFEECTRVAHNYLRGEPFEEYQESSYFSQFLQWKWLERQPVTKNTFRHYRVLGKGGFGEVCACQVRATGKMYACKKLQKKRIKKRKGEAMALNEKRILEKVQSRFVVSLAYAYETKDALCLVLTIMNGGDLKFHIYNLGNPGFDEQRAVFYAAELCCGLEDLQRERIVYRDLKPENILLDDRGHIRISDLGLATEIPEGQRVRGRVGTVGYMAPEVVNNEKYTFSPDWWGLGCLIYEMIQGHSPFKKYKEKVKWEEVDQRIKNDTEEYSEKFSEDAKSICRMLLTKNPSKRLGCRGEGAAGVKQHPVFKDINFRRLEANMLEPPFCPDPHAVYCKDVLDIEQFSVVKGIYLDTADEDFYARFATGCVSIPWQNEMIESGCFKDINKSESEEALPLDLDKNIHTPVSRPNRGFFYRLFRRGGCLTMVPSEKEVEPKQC

| SMILES | remaining binding at 1 µM [1] [%] | remaining binding at 1 µM (EPHB1) [%] | remaining binding at 1 µM (ACVRL1) [%] | remaining binding at 1 µM (AKT1) [%] | remaining binding at 1 µM (NDR1) [%] | remaining binding at 1 µM (ABL1-nonphosphorylated) [%] | remaining binding at 1 µM (LATS2) [%] | remaining binding at 1 µM (GRK4) [%] |
| --- | --- | --- | --- | --- | --- | --- | --- | --- |
| CNc1c(-c2cnn([C@H]3CCN(C(C)=O)C[C@@H]3F)c2)cnc2[nH]cc(Cl)c12 [Compound 77, 1-((3S,4S)-4-(4-(3-chloro-4-(methylamino)-1H-pyrrolo[2,3-b]pyridin-5-yl)-1H-pyrazol-1-yl)-3-fluoropiperidin-1-yl)ethan-1-one] | 81 | 93 | 100 | 100 | 74 | 54 | 86 | 21 |
| O=C(c1ccc(-c2cnc3[nH]cc(Cl)c3c2NC2CCCC2)cc1)N1CCC(N2CCOCC2)CC1 [Compound 101, (4-(3-chloro-4-(cyclopentylamino)-1H-pyrrolo[2,3-b]pyridin-5-yl)phenyl)(4-morpholinopiperidin-1-yl)methanone] | 10 | 95 | 100 | 96 | 84 | 98 | 82 | 14 |
| CNc1c(-c2ccc(C(=O)N3CCC(N4CCOCC4)CC3)cc2)cnc2[nH]cc(Cl)c12 [Compound 96, (4-(3-chloro-4-(methylamino)-1H-pyrrolo[2,3-b]pyridin-5-yl)phenyl)(4-morpholinopiperidin-1-yl)methanone] | 100 | 100 | 100 | 100 | 69 | 63 | 78 | 28 |
